One assay concerns Mumps virus. The assay is described as follows: Inhibitory concentration required to reduce virus Plaque formation (mumps). It is filed as functional, organism-based. The conditions noted are these: Mumps orthorubulavirus.
For the next assay, the system named is Measles morbillivirus. Description: Inhibitory concentration required to reduce virus Plaque formation (measles). It is filed as functional, organism-based.
In assay [1] the test system is Vero. The assay is described as follows: Cytotoxic concentration required to reduce the number of Vero cells by 50%. The note with it: Chlorocebus sabaeus. It is filed as cell-based.
The subject of assay [2] is Vesicular stomatitis virus. The assay is described as follows: Inhibitory concentration required to reduce virus -induced cytopathicity (VSV). It is filed as functional, organism-based. A general note: Protection from cytopathic effect is a common read-out in antiviral testing.
Assay [3] deals with Vero. Description: Antiviral and cytostatic effects against Sindbis virus expressed in Vero cells. The conditions noted are these: Chlorocebus sabaeus. It is filed as functional, cell-based.
Assay [4] relates to E6SM. Description: Antiviral and cytostatic effects against Hsv-2(G) virus expressed in E6SM cells. It is filed as functional, cell-based. The conditions noted are these: Homo sapiens.
Assay [5] deals with Vero. The assay is described as follows: Antiviral and cytostatic effects against Parainfluenza-3 virus expressed in Vero cells. The assay is classed as functional, cell-based. The conditions noted are these: Chlorocebus sabaeus.
Assay [6] deals with E6SM. Description: Antiviral and cytostatic effects against VSV virus expressed in E6SM cells. It is filed as functional, cell-based. The conditions noted are these: Homo sapiens.
In another assay the test system is CCRF-CEM. Description: Antiviral and cytostatic effects againstTK-VZV virus expressed in CEM cells. The assay is classed as functional, cell-based. The conditions noted are these: Homo sapiens.
Assay [7] concerns HEL. Description: Antiviral and cytostatic effects againstTK-VZV virus expressed in HEL cells. The conditions noted are these: Homo sapiens. It is filed as functional, cell-based.
Assay [8] deals with Vero. The assay is described as follows: Antiviral and cytostatic effects against Tacaribe virus expressed in Vero cells. It is filed as functional, cell-based. The conditions noted are these: Chlorocebus sabaeus.
In assay [9] the test system is HeLa. The assay is described as follows: Antiviral and cytostatic effects against VSV virus expressed in Hela cells. The assay is classed as functional, cell-based. The note with it: Homo sapiens.
The test system of assay [10] is E6SM. The assay is described as follows: Antiviral and cytostatic effects againstTK-VZV virus expressed in E6SM cells. The note with it: Homo sapiens. The assay is classed as functional, cell-based.
The subject of assay [11] is Vero. Description: Antiviral and cytostatic effects against Junin virus expressed in Vero cells. The assay is classed as functional, cell-based. The conditions noted are these: Chlorocebus sabaeus.
The subject of assay [12] is Vero. The assay is described as follows: Antiviral and cytostatic effects against forest virus expressed in Vero cells. The assay is classed as functional, cell-based. The conditions noted are these: Chlorocebus sabaeus.
In another assay the test system is L1210. Description: Antiviral and cytostatic effects againstTK-VZV virus expressed in L1210 cells. The assay is classed as functional, cell-based. The note with it: Mus musculus.
The test system of assay [13] is Vero. The assay is described as follows: Antiviral and cytostatic effects againstTK-VZV virus expressed in Vero cells. The note with it: Chlorocebus sabaeus. It is filed as functional, cell-based.
The test system of a further assay is MOLT-4. The assay is described as follows: Antiviral and cytostatic effects againstTK-VZV virus expressed in MOLT-4 cells. The assay is classed as functional, cell-based. The note with it: Homo sapiens.
For assay [14], the system named is E6SM. The assay is described as follows: Antiviral and cytostatic effects against VV virus expressed in E6SM cells. The assay is classed as functional, cell-based. The conditions noted are these: Homo sapiens.
The subject of assay [15] is HEL. The assay is described as follows: Antiviral and cytostatic effects against TK-VZV virus expressed in HEL cells. The assay is classed as functional, cell-based. The note with it: Homo sapiens.
Assay [16] concerns E6SM. The assay is described as follows: Antiviral and cytostatic effects against TK HSV-1( B2006) virus expressed in E6SM cells. It is filed as functional, cell-based. The conditions noted are these: Homo sapiens.
The test system of assay [17] is HEL. Description: Antiviral and cytostatic effects against CMV (AD-169) virus expressed in HEL cells. The assay is classed as functional, cell-based. The conditions noted are these: Homo sapiens.
Assay [18] relates to HeLa. The assay is described as follows: Antiviral and cytostatic effects againstTK-VZV virus expressed in Hela cells. The assay is classed as functional, cell-based. The conditions noted are these: Homo sapiens.
Assay [19] concerns HeLa. The assay is described as follows: Antiviral and cytostatic effects against Coxsackie B4 virus expressed in HeLa cells. It is filed as functional, cell-based. The conditions noted are these: Homo sapiens.
In assay [20] the test system is E6SM. The assay is described as follows: Antiviral and cytostatic effects against CMV (Davis) virus expressed in […]. It is filed as functional, cell-based. The note with it: Homo sapiens.
Assay [21] has as its system HEL. Description: Antiviral and cytostatic effects against VZV(Oka,YS) virus expressed in HEL cells. The assay is classed as functional, cell-based. The conditions noted are these: Homo sapiens.
For assay [22], the system named is E6SM. The assay is described as follows: Antiviral and cytostatic effects against Hsv-1(KOS) virus expressed in E6SM cells. It is filed as functional, cell-based. The note with it: Homo sapiens.
Assay [23] concerns Vero. The assay is described as follows: Antiviral and cytostatic effects against Reo-1 virus expressed in Vero cells. The assay is classed as functional, cell-based. The note with it: Chlorocebus sabaeus.
The next assay deals with FM3A. The assay is described as follows: Antiviral and cytostatic effects againstTK-VZV virus expressed in FM3A cells. The note with it: Mus musculus. It is filed as functional, cell-based.
Assay [24] relates to HeLa. Description: Antiviral and cytostatic effects against Polio-1 virus expressed in Hela cells. The assay is classed as functional, cell-based. The note with it: Homo sapiens.

In brackets after ≈: the same amount, converted by molar mass.

The term IC50 denotes the concentration at which inhibition is half-maximal. Low readings indicate higher potency, high ones lower potency. For `C[C@H](O)C1=C[C@@H](n2cnc3c(N)ncnc32)[C@H](O)[C@@H]1O`, the IC50 was 0.19 µg/mL (≈ 0.685 µM) with Mumps virus, 0.09 µg/mL (≈ 0.325 µM) with Measles morbillivirus, over 200 µg/mL in the assay with Vero [1] and 0.25 µg/mL (≈ 0.902 µM) in assay [2].
For `C[C@H](O)C1=C[C@@H](n2cnc3c(N)nc(F)nc32)[C@H](O)[C@@H]1O` the same measures were 7 µg/mL (≈ 23.7 µM), over 25 µg/mL, over 200 µg/mL and 16 µg/mL (≈ 54.2 µM).
For `Nc1nc(Cl)nc2c1ncn2[C@@H]1C=C(CO)[C@@H](O)[C@H]1O` the same measures were over 25 µg/mL, 29 µg/mL (≈ 97.4 µM), over 200 µg/mL and 63 µg/mL (≈ 212 µM).
For `Nc1ncnc2c1ncn2[C@@H]1C=C[C@@H](O)[C@H]1O`, the IC50 in the assay with Mumps virus was 1.1 µg/mL (≈ 4.72 µM); with Measles morbillivirus, 0.47 µg/mL (≈ 2.02 µM); in the assay on Vero [1], over 200 µg/mL; in assay [2] it was 1 µg/mL (≈ 4.29 µM).
As for `Nc1nc(Cl)nc2c1ncn2[C@@H]1C=C[C@@H](O)[C@H]1O`, the figures for the IC50 in the assay on Mumps virus, in the assay with Measles morbillivirus and in the assay with Vero [1] were over 25 µg/mL, over 25 µg/mL and over 200 µg/mL, respectively.
In the case of `Nc1nc(F)nc2c1ncn2[C@@H]1C=C[C@@H](O)[C@H]1O`, the IC50 with Mumps virus was 21 µg/mL (≈ 83.6 µM); in the assay with Measles morbillivirus, over 25 µg/mL; in the assay with Vero [1], over 200 µg/mL.
Regarding `Nc1nc(F)nc2c1ncn2[C@@H]1C=C(CO)[C@@H](O)[C@H]1O`, the IC50 with Vero [3] is 1 µg/mL (≈ 3.56 µM); with Mumps virus it was 1.2 µg/mL (≈ 4.27 µM); in the assay with Measles morbillivirus, 0.03 µg/mL (≈ 0.107 µM); with E6SM [4], over 40 µg/mL; in the assay on Vero [5] it was 2 µg/mL (≈ 7.11 µM); in the assay with E6SM [6], 1 µg/mL (≈ 3.56 µM). Also, the IC50 with CCRF-CEM was 1.75 µg/mL (≈ 6.22 µM); with HEL [7] it was 2 µg/mL (≈ 7.11 µM); in the assay on Vero [8] it was 0.7 µg/mL (≈ 2.49 µM); with Vero [1], over 200 µg/mL; in the assay with HeLa [9] it was 0.4 µg/mL (≈ 1.42 µM); in the assay with E6SM [10] it was 40 µg/mL (≈ 142 µM). For the same molecule, the IC50 with Vero [11] was 0.6 µg/mL (≈ 2.13 µM); with Vero [12], over 100 µg/mL; in the assay on L1210 it was 0.25 µg/mL (≈ 0.889 µM); with Vero [13], 100 µg/mL (≈ 356 µM); with MOLT-4, 0.5 µg/mL (≈ 1.78 µM); with E6SM [14] it was 0.1 µg/mL (≈ 0.356 µM). Also, the IC50 with HEL [15] was 7 µg/mL (≈ 24.9 µM); with E6SM [16] it was over 40 µg/mL; in assay [2], 0.25 µg/mL (≈ 0.889 µM); in the assay with HEL [17] it was 1.5 µg/mL (≈ 5.33 µM); in the assay with HeLa [18], 100 µg/mL (≈ 356 µM); with HeLa [19], over 100 µg/mL. For the same molecule, the IC50 with E6SM [20] is over 5 µg/mL; with HEL [21] it was 10 µg/mL (≈ 35.6 µM); with E6SM [22], over 40 µg/mL; in the assay with Vero [23], 0.7 µg/mL (≈ 2.49 µM); in the assay on FM3A, 0.19 µg/mL (≈ 0.676 µM); with HeLa [24], over 40 µg/mL.
With `Nc1ncnc2c1ncn2[C@@H]1C=C(CO)[C@@H](O)[C@H]1O` [NEOPLANOCIN A], the IC50 in the assay with Vero [3] was 7 µg/mL (≈ 26.6 µM); with Mumps virus it was 0.11 µg/mL (≈ 0.418 µM); with Measles morbillivirus, 0.1 µg/mL (≈ 0.38 µM); in the assay on E6SM [4], over 40 µg/mL; with Vero [5] it was 2 µg/mL (≈ 7.6 µM); in the assay on E6SM [6], 7 µg/mL (≈ 26.6 µM). Further, the IC50 in the assay with CCRF-CEM was 1.12 µg/mL (≈ 4.25 µM); in the assay with HEL [7], over 20 µg/mL; in the assay with Vero [8] it was 1.5 µg/mL (≈ 5.7 µM); with Vero [1], 155 µg/mL (≈ 589 µM); in the assay on HeLa [9], 2 µg/mL (≈ 7.6 µM); in the assay on E6SM [10] it was 70 µg/mL (≈ 266 µM). The IC50 in the assay with Vero [11] is 0.5 µg/mL (≈ 1.9 µM); in the assay on Vero [12] it was over 40 µg/mL; in the assay with L1210, 0.027 µg/mL (≈ 0.103 µM); in the assay with Vero [13] it was 40 µg/mL (≈ 152 µM); with MOLT-4 it was 2.34 µg/mL (≈ 8.89 µM); in the assay on E6SM [14], 0.7 µg/mL (≈ 2.66 µM). In addition, the IC50 is 9 µg/mL (≈ 34.2 µM) in the assay on HEL [15]; 20 µg/mL (≈ 76 µM) in the assay with E6SM [16]; 0.25 µg/mL (≈ 0.95 µM) in assay [2]; 40 µg/mL (≈ 152 µM) in the assay on HeLa [18]; over 40 µg/mL with HeLa [19]; 0.4 µg/mL (≈ 1.52 µM) in the assay on E6SM [20]. Besides, the IC50 in the assay on HEL [21] was 10 µg/mL (≈ 38 µM); in the assay on E6SM [22], 70 µg/mL (≈ 266 µM); in the assay on Vero [23], 0.7 µg/mL (≈ 2.66 µM); in the assay on FM3A, 0.022 µg/mL (≈ 0.0836 µM); with HeLa [24] it was over 40 µg/mL.

These data come from ChEMBL document CHEMBL1129081, “New neplanocin analogues. 7. Synthesis and antiviral activity of 2-halo derivatives of neplanocin A” (J Med Chem, 1996).
